Test system: ciliated tissue taken from the trachea of a chick embryo
Assay: Cilia beat frequency (CBF) model
Assay type: cell-based
Description: By “toxic” herein is meant that the active agent has an adverse effect on the cilia beat frequency of ciliated tissue taken from the trachea of a chick embryo according to the model that is well known in the art (“The Effect of Nasal Drug Formulations on Ciliary Beating in Vitro,” Romeijn, et al.; Int. J. Pharm., 135; 1996: 137-145; “Classification of Cilio-Inhibiting Effects of Nasal Drugs,” Merkus, et al., Laryngoscope, 111(4); April 2001: 595-602). By “ameliorating said toxicity” herein is meant that the adverse effect of the active agent on the cilia beat frequency is lessened as a result of the inclusion in the medicament of ascorbic acid for co-administration with said active agent. […]
The cilia beat frequency (CBF) model is a recognised technique to investigate the relative toxicity of substances applied in solution to a section of ciliated tissue taken from the trachea of a chick embryo (Romeijn, et al., 1996, Merkus, et al., 2001). […] The tissue is then transferred to a well containing 1.0 ml of test solution and the impact on CBF assessed. Further, the reversibility of any effects can be measured by washing the tissue in Locke-Ringer solution 15 minute post administration and evaluating the recovery of CBF.

SMILES	effect of adding ascorbic acid on the apomorphine-induced arrest of cilia beat movement (1% wt. ascorbic acid added to 1% apomorphine in MLR solution, single administration, FIG. 1)	reversibility of toxic effect on CBF after washing
O=C1O[C@H]([C@@H](O)CO)C(O)=C1O [ascorbic acid]	ameliorated significantly	–
CN1CCc2cccc3c2[C@H]1Cc1ccc(O)c(O)c1-3 [apomorphine]	–	irreversible

Source: patent US20110086875A1, “Powdered Medicament for Nasal Delivery of Ascorbic Acid for Reducing Apomorphine Induced Toxicity to Ciliated Tissue” (BRITANNIA PHARMACEUTICALS LIMITED, priority 2007, published 2011)
